Where a name gives a salt, the structure may show the parent alone. Read-outs that look alike come from different tables or passages of the source.
Tests used:
[1] = biological target: muscarinic acetylcholine receptors; assay: inhibition of specific binding of ^3 H-Oxotremorine-M (^3 H-Oxo) in rat cortex; set-up: species or system male Wistar rats; details: read-out: Inhibition in vitro OXO BINDING (IC50, concentration which inhibits the specific binding of ^3 H-Oxo by 50%), ^3 H-Oxotremorine 1.0 nM, 30 min at 25° C., pH 7.4, 25-75% inhibition needed for calculation
Description: The pharmacological properties of the compounds of the invention can be illustrated by determining their capability to inhibit the specific binding of ^3 H-Oxotremorine-M (^3 H-Oxo).
^3 H-Oxo labels muscarinic receptor in the CNS (with a preference for agonist domaines of the receptors). Three different sites are labelled by ^3 H-Oxo. […] Using the present experimental conditions only the high and medium affinity sites are determined.
The inhibitory effects of compounds on ^3 H-Oxo binding reflects the affinity for muscarinic acetylcholine receptors.
All preparations are performed at 0°-4° C. unless otherwise indicated. Fresh cortex (0.1-1 g) from male Wistar rats (150-250 g) is homogenized for 5-10 s in 10 ml 20 mM Hepes pH: 7.4, with an Ultra-Turrax homogenizer. The homogenizer is rinsed with 10 ml of buffer and the combined suspension centrifuged for 15 min at 40,000×g. The pellet is washed three times with buffer. In each step the pellet is homogenized as before in 2×10 ml of buffer and centrifuged for 10 min at 40,000×g.
The final pellet is homogenized in 20 mM Hepes pH: 7.4 (100 ml per g of original tissue) and used for binding assay. Aliquots of 0.5 ml is added 25 μl of test solution and 25 μl of ^3 H-Oxotremorine (1.0 nM, final concentration) mixed and incubated for 30 min at 25° C. […] After incubation samples are added 5 ml of ice-cold buffer and poured directly onto Whatman GF/C glass fiber filters under suction and immediately washed 2 times with 5 ml of ice-cold buffer. The amount of radioactivity on the filters are determined by conventional liquid scintillation counting. Specific binding is total binding minus non specific binding.
Test substances are dissolved in 10 ml water (if necessary heated on a steambath for less than 5 minutes) at a concentration of 2.2 mg/ml. 25-75% inhibition of specific binding must be obtained before calculation of IC50.
[formula] where Co is specific binding in control assays and Cx is the specific binding in the test assay. (The calculations assume normal mass-action kinetics).

[2] = biological target: muscarinic receptor in the CNS; details: read-out: affinity of ^3 H-Oxo site, cited from earlier work
[3] = in vivo; cited from earlier work
[4] = test system: central and peripheral muscarinic effects; details: in vivo; cited from earlier work
[5] = in vivo; cited from earlier work; remark: listed apart in the source

Structure (SMILES): CCCCCOc1nccnc1C1CN2CCC1CC2 (stereo not shown) [Compound 25, 3-(3-Pentyloxypyrazinl)-1-azabicyclo[2.2.2]octane hydrochloride]
- IC50 [1]: 6 nM

Structure (SMILES): C[N+](C)(C)CC#CCN1CCCC1=O [^3 H-Oxo]
- Kd ([2]; first of three sites (high affinity)): 1.8 nM
- Kd ([2]; second of three sites (medium affinity)): 20 nM
- Kd ([2]; third of three sites, not determined under the present conditions): 3000 nM

Structure (SMILES): CCCCCCOc1nccnc1[C@@H]1CN2CC[C@@H]1C2 (relative stereo) [Compound 28, Exo-3-(3-hexyloxypyrazinyl)-1-azabicyclo[2.2.1]heptane hydrochloride]
- IC50 [1]: 5.6 nM

Structure (SMILES): COC(=O)C1=CCCN(C)C1 [Arecoline, methyl 1-methyl-1,2,5,6-tetrahydropyridine-3-carboxylate]
- biological half life [3]: very short
- separation between central and peripheral muscarinic effects [4]: small separation
- toxicity [5]: rather toxic

Structure (SMILES): CCCCCCOc1nccnc1[C@H]1CN2CC[C@@H]1C2 (relative stereo) [Compound 27, Endo-3-(3-hexyloxypyrazinyl)-1-azabicyclo[2.2.2]heptane hydrochlorid hemihydrate]
- IC50 [1]: 46 nM

Structure (SMILES): FC(F)(F)C(F)(F)C(F)(F)C(F)(F)CCOc1nccnc1C1=CN2CCC1CC2 [Compound 24, 3-(3-(3,3,4,4,5,5,6,6,6)nonafluorohexyloxypyrazinyl)-1-azabicyclo[2.2.2]oct-2-ene hydrochloride]
- IC50 [1]: 490 nM

From patent US5182283A, “Heterocyclic compounds their preparation and use” (Novo Nordisk A/S, priority 1990, dated 1993)
